Test results published in the NIST ThermoML archive (doi:10.1016/j.tca.2009.07.008).
Numbers after ± are expanded uncertainties.

Test: mn = molality of the nth substance listed, in mol/kg
Settings: 303.15 K, 101 kPa, Liquid, Capillary tube (Ostwald / Ubbelohde) method

CCCCN [1-butanamine] + C1CCOC1
Settings | viscosity [mPa·s]
m1 = 0.1429 | 0.329 ± 0.0047
m1 = 0.2304 | 0.3312 ± 0.0047
m1 = 0.5054 | 0.336 ± 0.0047
m1 = 0.588 | 0.3398 ± 0.0047
m1 = 0.7153 | 0.3442 ± 0.0048
m1 = 0.8391 | 0.3481 ± 0.0048
m1 = 1.009 | 0.351 ± 0.0048
m1 = 1.27 | 0.3549 ± 0.0048
m1 = 1.407 | 0.3619 ± 0.0048

CCCCN [1-butanamine] + C1COCCO1
Settings | viscosity [mPa·s]
m1 = 0.1085 | 1.06 ± 0.0078
m1 = 0.2365 | 1.046 ± 0.0077
m1 = 0.3679 | 1.032 ± 0.0077
m1 = 0.4745 | 1.02 ± 0.0076
m1 = 0.5834 | 1.007 ± 0.0076
m1 = 0.7574 | 0.9893 ± 0.0075
m1 = 0.8872 | 0.9764 ± 0.0074
m1 = 1.004 | 0.9652 ± 0.0074
m1 = 1.116 | 0.9543 ± 0.0073

CCCCNCCCC [dibutylamine] + C1CCOC1
Settings | viscosity [mPa·s]
m1 = 0.1402 | 0.3333 ± 0.0047
m1 = 0.2993 | 0.3417 ± 0.0048
m1 = 0.4313 | 0.3498 ± 0.0048
m1 = 0.5953 | 0.3567 ± 0.0048
m1 = 0.7592 | 0.3648 ± 0.0048
m1 = 0.8997 | 0.3735 ± 0.0049
m1 = 1.027 | 0.3806 ± 0.0049
m1 = 1.201 | 0.3912 ± 0.0049
m1 = 1.381 | 0.4015 ± 0.005

CCCCNCCCC [dibutylamine] + C1COCCO1
Settings | viscosity [mPa·s]
m1 = 0.1225 | 1.065 ± 0.0078
m1 = 0.2369 | 1.053 ± 0.0078
m1 = 0.3608 | 1.04 ± 0.0077
m1 = 0.4533 | 1.031 ± 0.0077
m1 = 0.594 | 1.019 ± 0.0076
m1 = 0.7122 | 1.006 ± 0.0076
m1 = 0.8855 | 0.9937 ± 0.0075
m1 = 0.9669 | 0.9865 ± 0.0075
m1 = 1.138 | 0.9766 ± 0.0075

CCCNCCC [dipropylamine] + C1CCOC1
Settings | viscosity [mPa·s]
m1 = 0.1794 | 0.332 ± 0.0047
m1 = 0.285 | 0.335 ± 0.0047
m1 = 0.4155 | 0.3388 ± 0.0047
m1 = 0.5881 | 0.3437 ± 0.0048
m1 = 0.7109 | 0.3491 ± 0.0048
m1 = 0.9435 | 0.3545 ± 0.0048
m1 = 1.051 | 0.3574 ± 0.0048
m1 = 1.198 | 0.364 ± 0.0048
m1 = 1.357 | 0.3717 ± 0.0049

CCCNCCC [dipropylamine] + C1COCCO1
Settings | viscosity [mPa·s]
m1 = 0.0998 | 1.062 ± 0.0078
m1 = 0.2282 | 1.05 ± 0.0077
m1 = 0.341 | 1.039 ± 0.0077
m1 = 0.4787 | 1.027 ± 0.0077
m1 = 0.6261 | 1.012 ± 0.0076
m1 = 0.7266 | 1.001 ± 0.0075
m1 = 0.8461 | 0.9902 ± 0.0075
m1 = 0.9821 | 0.9801 ± 0.0075
m1 = 1.149 | 0.9661 ± 0.0074

CCCN [propan-1-amine] + C1CCOC1
Settings | viscosity [mPa·s]
m1 = 0.1123 | 0.328 ± 0.0047
m1 = 0.2842 | 0.3315 ± 0.0047
m1 = 0.3986 | 0.3329 ± 0.0047
m1 = 0.5609 | 0.3353 ± 0.0047
m1 = 0.7487 | 0.3395 ± 0.0047
m1 = 0.8957 | 0.3412 ± 0.0048
m1 = 1.002 | 0.3436 ± 0.0048
m1 = 1.139 | 0.3453 ± 0.0048
m1 = 1.377 | 0.3513 ± 0.0048

CCCN [propan-1-amine] + C1COCCO1
Settings | viscosity [mPa·s]
m1 = 0.1086 | 1.06 ± 0.0078
m1 = 0.2456 | 1.043 ± 0.0077
m1 = 0.3295 | 1.028 ± 0.0076
m1 = 0.478 | 1.014 ± 0.0076
m1 = 0.5767 | 0.9987 ± 0.0075
m1 = 0.7164 | 0.9852 ± 0.0074
m1 = 0.8321 | 0.9693 ± 0.0074
m1 = 1.028 | 0.9504 ± 0.0073
m1 = 1.116 | 0.9395 ± 0.0072

CCCCN(CCCC)CCCC [tributylamine] + C1CCOC1
Settings | viscosity [mPa·s]
m1 = 0.1637 | 0.3385 ± 0.0047
m1 = 0.3071 | 0.3517 ± 0.0048
m1 = 0.4107 | 0.3637 ± 0.0048
m1 = 0.5836 | 0.3764 ± 0.0049
m1 = 0.7131 | 0.3894 ± 0.0049
m1 = 0.9025 | 0.4036 ± 0.005
m1 = 1.125 | 0.4181 ± 0.005
m1 = 1.204 | 0.4323 ± 0.0051
m1 = 1.31 | 0.4444 ± 0.0051
